Laboratory results: US6127519A, “Calcitonin derivatives” (Tsumura & Co., priority 1990, dated 2000)
Bridge positions count the residues as written; N and C are the ends. Ends that are not written are not given here. Peptide text beside a SMILES is read from it.

System: calcium concentration in the serum
Test: Test 1: reduction of calcium level in serum after tail vein administration to rats
Type: in vivo, rats of the Wistar strain
Details: 1 ml/kg tail vein, female Wistar rats
Procedure: Six-weeks-old female rats of the Wistar strain (each group consisting of 4 rats) were used as the test animal, and the peptides of the present invention obtained in the examples given hereinafter were tested at concentrations adjusted with a 1% aqueous solution of sodium acetate (pH 4,0) to which 0.1% bovine serum albumin (BSA) was added. The solution was adjusted to a concentration of 166 μg/ml 830 ng/ml or 83 ng/ml and administered with the tail vein in an amount of 1 ml/kg. The back of the rat was fixed and blood was collected just before the administration, and at predetermined intervals after the administration, from the neck vein. The amount of blood collected each time was 0.3 ml. The sampled blood was subjected to centrifugal separation at 3500 rpm for 20 minutes to separate serum and the calcium content in the separated serum was measured by TBA-380 (supplied by Toshiba) using a Wako calcium-measuring kit (o-cpc method), and the ratio of reduction of the calcium concentration in the serum was determined.

[1] = concentration 83 ng/ml, 0 hour (just before administration)
[2] = concentration 83 ng/ml, 2 hours
[3] = concentration 83 ng/ml, 4 hours
[4] = concentration 83 ng/ml, 6 hours
[5] = concentration 830 ng/ml, 0 hour (just before administration)
[6] = concentration 830 ng/ml, 1 hour
[7] = concentration 830 ng/ml, 2 hours
[8] = concentration 830 ng/ml, 4 hours
[9] = concentration 830 ng/ml, 6 hours
[10] = concentration 166 ng/ml, 0 hour (just before administration)
[11] = concentration 166 ng/ml, 1 hour
[12] = concentration 166 ng/ml, 2 hours
[13] = concentration 166 ng/ml, 4 hours
[14] = concentration 166 ng/ml, 6 hours

Molecule	Serum calcium level as percent of pre-dose baseline [1] [%]	Serum calcium level as percent of pre-dose baseline (concentration 83 ng/ml, 1 hour) [%]	Serum calcium level as percent of pre-dose baseline [2] [%]	Serum calcium level as percent of pre-dose baseline [3] [%]	Serum calcium level as percent of pre-dose baseline [4] [%]	Serum calcium level as percent of pre-dose baseline [5] [%]	Serum calcium level as percent of pre-dose baseline [6] [%]	Serum calcium level as percent of pre-dose baseline [7] [%]	Serum calcium level as percent of pre-dose baseline [8] [%]	Serum calcium level as percent of pre-dose baseline [9] [%]	Serum calcium level as percent of pre-dose baseline [10] [%]	Serum calcium level as percent of pre-dose baseline [11] [%]	Serum calcium level as percent of pre-dose baseline [12] [%]	Serum calcium level as percent of pre-dose baseline [13] [%]	Serum calcium level as percent of pre-dose baseline [14] [%]
CC[C@H](C)[C@H](NC(=O)[C@H](C)NC(=O)[C@@H](NC(=O)[C@H](CCC(N)=O)NC(=O)[C@@H]1CCCN1C(=O)[C@H](Cc1ccc(O)cc1)NC(=O)[C@@H](NC(=O)[C@H](CCC(N)=O)NC(=O)[C@H](CC(C)C)NC(=O)[C@H](CCCCN)NC(=O)[C@H](Cc1c[nH]cn1)NC(=O)[C@H](CC(C)C)NC(=O)[C@H](CCC(=O)O)NC(=O)[C@H](CCC(N)=O)NC(=O)[C@H](CO)NC(=O)[C@H](CC(C)C)NC(=O)[C@H](CCCCN)NC(=O)CNC(=O)[C@H](CC(C)C)NC(=O)[C@H](CC(C)C)NC(=O)[C@@H]1CC(=O)NCCCC[C@H](N)C(=O)N[C@@H](CC(N)=O)C(=O)N[C@@H](CC(C)C)C(=O)N[C@@H](CO)C(=O)N[C@@H]([C@@H](C)O)C(=O)N1)[C@@H](C)O)[C@@H](C)O)C(=O)NCC(=O)N[C@H](C(=O)NCC(=O)N[C@@H](C)C(=O)N1CCC[C@H]1C(N)=O)C(C)C [Peptide No. 28] (H-KNLSTDLLGKLSQELHKLQTYPQTAIGVGAP-NH2; lactam 1-6)	100.0	83.7	87.7	82.6	80.8	100.0	73.5	87.2	83.8	81.6					
CC[C@H](C)[C@H](NC(=O)[C@H](C)NC(=O)[C@@H](NC(=O)[C@H](CCC(N)=O)NC(=O)[C@@H]1CCCN1C(=O)[C@H](Cc1ccc(O)cc1)NC(=O)[C@@H](NC(=O)[C@H](CCC(N)=O)NC(=O)[C@H](CC(C)C)NC(=O)[C@H](CCCCN)NC(=O)[C@H](Cc1c[nH]cn1)NC(=O)[C@H](CC(C)C)NC(=O)[C@H](CCC(=O)O)NC(=O)[C@H](CCC(N)=O)NC(=O)[C@H](CO)NC(=O)[C@H](CC(C)C)NC(=O)[C@H](CCCCN)NC(=O)CNC(=O)[C@H](CC(C)C)NC(=O)[C@H](C)NC(=O)[C@@H]1CSSC[C@H](N)C(=O)NCC(=O)N[C@@H](CC(N)=O)C(=O)N[C@@H](CC(C)C)C(=O)N[C@@H](CO)C(=O)N[C@@H]([C@@H](C)O)C(=O)N1)[C@@H](C)O)[C@@H](C)O)C(=O)NCC(=O)N[C@H](C(=O)NCC(=O)N[C@@H](C)C(=O)N1CCC[C@H]1C(N)=O)C(C)C [Peptide No. 10] (H-CGNLSTCALGKLSQELHKLQTYPQTAIGVGAP-NH2; disulfide 1-7)	100.0	68.7	77.9	90.6	81.6	100.0	70.2	65.4	76.1	84.2					
AGNLSTAMLGKLSQELHKLYPQTAIGVGAP-NH2 [Peptide No. 16]											100.0	80.0	86.5	84.8	85.7
CC[C@H](C)[C@H](NC(=O)[C@H](C)NC(=O)[C@@H](NC(=O)[C@H](CCC(N)=O)NC(=O)[C@@H]1CCCN1C(=O)[C@H](Cc1ccc(O)cc1)NC(=O)[C@@H](NC(=O)[C@H](CCC(N)=O)NC(=O)[C@H](CC(C)C)NC(=O)[C@H](CCCCN)NC(=O)[C@H](Cc1c[nH]cn1)NC(=O)[C@H](CC(C)C)NC(=O)[C@H](CCC(=O)O)NC(=O)[C@H](CCC(N)=O)NC(=O)[C@H](CO)NC(=O)[C@H](CC(C)C)NC(=O)[C@H](CCCCN)NC(=O)CNC(=O)[C@H](CC(C)C)NC(=O)CNC(=O)[C@@H]1CSSC[C@H](N)C(=O)NCC(=O)N[C@@H](CC(N)=O)C(=O)N[C@@H](CC(C)C)C(=O)N[C@@H](CO)C(=O)N[C@@H]([C@@H](C)O)C(=O)N1)[C@@H](C)O)[C@@H](C)O)C(=O)NCC(=O)N[C@H](C(=O)NCC(=O)N[C@@H](C)C(=O)N1CCC[C@H]1C(N)=O)C(C)C [Peptide No. 9] (H-CGNLSTCGLGKLSQELHKLQTYPQTAIGVGAP-NH2; disulfide 1-7)	100.0	81.0	87.5	84.0	83.2	100.0	72.8	78.4	86.8	82.4					
Peptide No. 22: novel calcitonin-derivative peptide, aminosuberic acid (carba) ring, Leu8, SEQ ID NO:22 (XGNLSTALLGKLSQELHKLQTYPQTAIGVGAP; aminosuberic acid carba ring)	100.0	76.1	70.7	70.7	75.9	100.0	77.2	70.7	55.8	48.5					
AGNLSTAMLGKLSQELHKQTYPQTAIGVGAP-NH2 [Peptide No. 15]											100.0	75.5	67.5	80.6	75.3
CC[C@H](C)[C@H](NC(=O)[C@H](C)NC(=O)[C@@H](NC(=O)[C@H](CCC(N)=O)NC(=O)[C@@H]1CCCN1C(=O)[C@H](Cc1ccc(O)cc1)NC(=O)[C@@H](NC(=O)[C@H](CCC(N)=O)NC(=O)[C@H](CC(C)C)NC(=O)[C@H](CCCCN)NC(=O)[C@H](Cc1c[nH]cn1)NC(=O)[C@H](CC(C)C)NC(=O)[C@H](CCC(=O)O)NC(=O)[C@H](CCC(N)=O)NC(=O)[C@H](CO)NC(=O)[C@H](CC(C)C)NC(=O)[C@H](CCCCN)NC(=O)CNC(=O)[C@H](CC(C)C)NC(=O)[C@H](CCSC)NC(=O)[C@@H]1CC(=O)NCCCC[C@H](N)C(=O)N[C@@H](CC(N)=O)C(=O)N[C@@H](CC(C)C)C(=O)N[C@@H](CO)C(=O)N[C@@H]([C@@H](C)O)C(=O)N1)[C@@H](C)O)[C@@H](C)O)C(=O)NCC(=O)N[C@H](C(=O)NCC(=O)N[C@@H](C)C(=O)N1CCC[C@H]1C(N)=O)C(C)C [Peptide No. 27] (H-KNLSTDMLGKLSQELHKLQTYPQTAIGVGAP-NH2; lactam 1-6)	100.0	93.5	94.3	86.4	82.7	100.0	79.5	94.1	87.0	82.9					
CC[C@H](C)[C@H](NC(=O)[C@H](C)NC(=O)[C@@H](NC(=O)[C@H](CCC(N)=O)NC(=O)[C@@H]1CCCN1C(=O)[C@H](Cc1ccc(O)cc1)NC(=O)[C@@H](NC(=O)[C@H](CCC(N)=O)NC(=O)[C@H](CC(C)C)NC(=O)[C@H](CCCCN)NC(=O)[C@H](Cc1c[nH]cn1)NC(=O)[C@H](CC(C)C)NC(=O)[C@H](CCC(=O)O)NC(=O)[C@H](CCC(N)=O)NC(=O)[C@H](CO)NC(=O)[C@H](CC(C)C)NC(=O)[C@H](CCCCN)NC(=O)CNC(=O)[C@H](CC(C)C)NC(=O)[C@@H](NC(=O)[C@@H]1CSSC[C@H](N)C(=O)NCC(=O)N[C@@H](CC(N)=O)C(=O)N[C@@H](CC(C)C)C(=O)N[C@@H](CO)C(=O)N[C@@H]([C@@H](C)O)C(=O)N1)C(C)C)[C@@H](C)O)[C@@H](C)O)C(=O)NCC(=O)N[C@H](C(=O)NCC(=O)N[C@@H](C)C(=O)N1CCC[C@H]1C(N)=O)C(C)C [Peptide No. 11] (H-CGNLSTCVLGKLSQELHKLQTYPQTAIGVGAP-NH2; disulfide 1-7)	100.0	69.7	82.8	83.9	81.0	100.0	69.1	62.7	77.2	86.2					
